Reference: publication PMC5472784, “Pyrazinamide and derivatives block ethylene biosynthesis by inhibiting ACC oxidase” (Nature Communications, 2017)

Legend:
AtACO2 = AtACO2 (Arabidopsis thaliana, UniProt Q41931); assay: ACO enzymatic activity assay and kinetic analysis (ethylene by GC-FID); assay type: biochemical; conditions: even at a high concentration (2 mM)
[1] = test system: Arabidopsis etiolated seedlings (Col-0, eto1-2, ctr1-1, ein2-5); assay: Ethylene response phenotype of 3-day-old etiolated seedlings (hypocotyl and root length, root hairs, root cells); assay type: in vivo, Arabidopsis thaliana
[2] = test system: ethylene production of Arabidopsis seedlings; assay: Measurement of ethylene production of seedlings (GC-FID); assay type: in vivo, Arabidopsis thaliana; conditions: etiolated and green seedlings, 50 μM
Protocol: Ethylene production was determined as follows: 30 3-day-old etiolated or 5-day-old green seedlings of Col-0, eto1-2 or other mutants were selected randomly and sealed in a 30 ml vial containing 3 ml liquid MS medium supplemented with indicated treatments. The vial was sealed with a rubber stopper for 24 h at 22 °C prior to ethylene sampling. A 250 μl sample of the headspace gas was withdrawn using a gas-tight syringe from each chamber through the septum stopper, and injected into a gas chromatograph (Agilent 6890NGC, Agilent Technologies, USA) that was equipped with a HP-PLOTQ column (40 m × 530 μm × 40 μm) and a flame ionization detector (FID)[44]. Separations were carried out at 60 °C using N2 as the carrier gas. The area of the ethylene peak was integrated with Agilent Chemstation and results were expressed as the average relative ethylene production (%) of each treatment.

[3] = test system: Arabidopsis PSB-D suspension cultured cells; assay: Ethylene production of suspension cultured cells; assay type: cell-based, Arabidopsis thaliana
[4] = test system: ACC conjugating enzymes (ACC and M-ACC content of eto1-2 seedlings); assay: Quantification of ACC and M-ACC; assay type: in vivo, Arabidopsis thaliana; conditions: 10-day-old green seedlings, 50 μM PZA
Protocol: 10-day-old green seedlings of eto1-2 under different treatments were ground in liquid nitrogen, and extracted with 5% SSA (sulfosalicylic acid). For ACC measurement, the extract was oxidized with 2 mM HgCl2, 0.33% NaOCl and 0.2 M NaOH, reacted on ice for 4 min, and then the ethylene production was determined with GC-FID. For M-ACC measurement, the extract was hydrolyzed using 2 M HCl followed by oxidization and ethylene production determination, and the content of ACC and M-ACC were calculated based on the ethylene production and efficiency of oxidization.

EIN3 = EIN3 protein level (Western blot) and pEBS:GUS staining; assay type: in vivo, Arabidopsis thaliana; conditions: 1 μM ACC, 50, 100 and 200 μM PZA
[5] = test system: Arabidopsis PSB-D suspension cultured cells; assay: Wayne Test, conversion of PZA to POA in suspension cultured cells; assay type: cell-based, Arabidopsis thaliana; conditions: 500 μM PZA, 24 h, abolished in boiled cells
Protocol: 500 μM PZA were added to 50 ml Arabidopsis suspension cell log phase cultures or boiled cultures and incubated at 27 °C for 24 h. 1 ml cell culture was collected after centrifugation, and 10 μl 2% ferrous sulfate was added to the supernatant for colour development. The absorbance at 450 nm of each samples was measured by spectrophotometer and the POA concentration was calculated according to the POA-Abs450 standard curve drawn using the reference solutions of POA.
Arabidopsis suspension cells were cultured in liquid MS medium in the presence or absence of 500 μM PZA for 24 h. The culture supernatant was collected by centrifugation and alkalized (pH>11) using sodium hydroxide (NaOH), followed by extracting with ethyl acetate twice to eliminate lipid-soluble molecules. The aqueous phase was collected and acidified (pH<2) using hydrochloric acid (HCl). The protonated cultures were extracted with ethyl acetate five times to enrich POA. The resulting samples were concentrated by reduced pressure distillation and analysed using a Fourier Transform Ion Cyclotron Resonance Mass Spectrometer (Solarix XR, Bruker).

AtNIC2 = target: T1, AtNIC2 (Arabidopsis thaliana, UniProt Q9FMX7); assay: In vitro PZase assay (TLC, NMR); assay type: biochemical; conditions: 5 mM PZA, 12 h, 30 °C
T1 sequence (Q9FMX7 1-198): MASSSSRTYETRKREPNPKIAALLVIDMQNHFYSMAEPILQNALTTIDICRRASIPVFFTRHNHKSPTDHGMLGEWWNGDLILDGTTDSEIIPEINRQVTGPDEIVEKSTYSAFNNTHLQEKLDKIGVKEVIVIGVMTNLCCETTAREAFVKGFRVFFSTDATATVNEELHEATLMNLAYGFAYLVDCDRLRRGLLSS
From the text: (§1) Silica TLC plates were developed in dichloromethane/methanol (3:1), and analysed with ultraviolet.
For NMR analysis, the AtNIC2-catalysed PZase reaction was acidified using HCl and extracted using ethyl acetate. The solvent was removed by reduced pressure distillation. The sample was then re-dissolved in dimethyl sulfoxide-d6 and analysed using Bruker-400 MHz NMR (ARX400, Bruker).

AtNIC3 = target: T2, AtNIC3 (Arabidopsis thaliana, UniProt Q9FMX8); assay: In vitro PZase assay (TLC); assay type: biochemical; conditions: 5 mM PZA, 12 h, 30 °C
T2 sequence (Q9FMX8 1-198): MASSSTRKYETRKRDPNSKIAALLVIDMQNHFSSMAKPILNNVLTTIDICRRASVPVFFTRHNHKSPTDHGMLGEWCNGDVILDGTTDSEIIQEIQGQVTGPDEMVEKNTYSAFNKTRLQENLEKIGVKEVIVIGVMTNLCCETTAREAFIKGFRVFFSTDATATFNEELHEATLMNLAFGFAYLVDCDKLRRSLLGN
From the text: as §1

GA response = assay: GA response, pRGA::GFP-RGA reporter seedlings; assay type: in vivo, Arabidopsis thaliana; conditions: pRGA::GFP-RGA seedlings, 20, 50, 100 μM PZA
Protocol: (§2) GFP fluorescence and propidium iodide staining signals in roots were detected using Zeiss LSM-710 microscope. All seedlings were grown in the dark for 3 days on MS medium supplemented with the indicated treatments, and then mounted on glass slides and observed in water. For propidium iodide staining, roots were visualized in the presence of propidium iodide without fixation. ImageJ was used to process images and to quantify the fluorescent intensity of GFP.

anthocyanin accumulation = assay: Anthocyanin measurement; assay type: in vivo, Arabidopsis thaliana; conditions: 6-day-old Col-0 green seedlings
From the text: 6-day-old green seedlings grown on MS medium supplemented with different concentration of PZA were sampled for anthocyanin measurement by spectrophotometry. The content of anthocyanin is presented as (A535−A650)/g.

auxin response = assay: Auxin response, pDR5::GFP reporter lines; assay type: in vivo, Arabidopsis thaliana; conditions: pDR5::GFP/Col-0 and pDR5::GFP/ein2-5
Protocol: as §2

AtACO2, sequence (Q41931 1-303): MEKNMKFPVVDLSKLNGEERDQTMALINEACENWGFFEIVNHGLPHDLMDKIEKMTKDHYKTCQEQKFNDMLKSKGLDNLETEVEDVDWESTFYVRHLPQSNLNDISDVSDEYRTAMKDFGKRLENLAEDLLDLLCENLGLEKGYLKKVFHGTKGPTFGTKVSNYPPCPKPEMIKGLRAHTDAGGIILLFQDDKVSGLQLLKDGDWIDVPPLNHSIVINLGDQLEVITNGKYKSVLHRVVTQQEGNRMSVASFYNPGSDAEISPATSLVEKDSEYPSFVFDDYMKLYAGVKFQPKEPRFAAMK

SMILES: NC(=O)c1cnccn1 [PZA, pyrazinamide]
- inhibition of the activity of AtACO2 (AtACO2): no inhibition
- cell elongation in the root maturation zone of eto1-2 ([1]; 50 μM): promoted cell elongation
- root hair formation of eto1-2 ([1]; 50 μM): effectively suppressed
- size of the cell division zone of eto1-2 root ([1]; 50 μM): little effect
- short-root and short-hypocotyl phenotype of eto1-2 ([1]; 3-day-old etiolated eto1-2 seedlings, MS medium with compound (50 μM shown)): partially suppressed
- phenotype of ethylene signalling mutants ctr1-1 and ein2-5 ([1]; 3-day-old etiolated seedlings): little effect
- ACC-induced short hypocotyl and root phenotype ([1]; Col-0, 1 μM ACC, 50 or 100 μM PZA): significantly suppressed
- ethylene-induced phenotype ([1]; Col-0, 2 p.p.m. ethylene, 50 or 100 μM PZA): no effect
- lengths of hypocotyls and roots of wild-type (Col-0) ([1]; etiolated seedlings, increasing doses (1-100 μM)): slightly promoted
- ethylene production of eto1-2 [2]: effectively inhibited
- ethylene production in suspension cultured cells [3]: inhibited
- ACC level in eto1-2 [4]: slight increase
- M-ACC level in eto1-2 [4]: almost no change
- ACC-induced EIN3 protein accumulation and transcriptional activation of target promoter (EIN3): inhibited
- conversion into POA in PSB-D culture [5]: converted into POA
- conversion of PZA into POA by AtNIC2 (AtNIC2): able to convert PZA into POA
- conversion of PZA into POA by AtNIC3 (AtNIC3): able to convert PZA into POA
- effect on GA response (GA response): virtually no effect
- effect on anthocyanin accumulation (anthocyanin accumulation): virtually no effect
- effect on auxin response (auxin response): EIN2-dependent manner
